Data published in ChEMBL document CHEMBL5532639, “Heterocyclic pyrimidine derivatives as promising antibacterial agents” (Eur J Med Chem, 2023).
Converted amounts (≈) assume the structure as drawn.

Tests used:
Staphylococcus aureus [1] = test: Antibacterial activity against Staphylococcus aureus assessed as bacterial growth inhibition; type: functional
Klebsiella pneumoniae = test: Antibacterial activity against Klebsiella pneumoniae assessed as reduction in bacterial growth by broth microdilution method; type: functional
Escherichia coli [2] = test: Antibacterial activity against Escherichia coli assessed as reduction in bacterial growth by broth microdilution method; type: functional
Pseudomonas aeruginosa [3] = test: Antibacterial activity against Pseudomonas aeruginosa assessed as reduction in microbial growth after 18 hrs by MTT based broth dilution method; type: functional
Escherichia coli [4] = test: Antibacterial activity Escherichia coli assessed as reduction in bacterial growth; type: functional
[5] = tested on: Staphylococcus epidermidis; test: Antibacterial activity against Staphylococcus epidermidis assessed as reduction in microbial growth; type: functional
Bacillus subtilis [6] = test: Antibacterial activity against Bacillus subtilis assessed as reduction in bacterial cell viability by well plate method; type: functional
Pseudomonas aeruginosa [7] = test: Antibacterial activity against Pseudomonas aeruginosa assessed as reduction in microbial growth by broth microdilution method; type: functional
Salmonella typhimurium [8] = test: Antibacterial activity against Salmonella typhimurium DT104 assessed as reduction in bacterial growth; type: functional, Salmonella enterica subsp. enterica serovar Typhimurium; details: Salmonella enterica
Streptococcus pneumoniae [9] = test: Antimicrobial activity against Streptococcus […] assessed as bacterial growth inhibition by measuring zone of inhibition at 50 ug/ml by agar cup diffusion assay; type: functional; details: read-out: IZ
Streptococcus pneumoniae [10] = test: Antibacterial activity against Streptococcus pneumoniae; type: functional
Bacillus subtilis [11] = test: Antimicrobial activity against Bacillus subtilis RCMB 010069 assessed as bacterial growth inhibition by measuring zone of inhibition at 50 ug/ml by agar cup diffusion assay; type: functional; details: read-out: IZ
Escherichia coli [12] = test: Antibacterial activity against Escherichia coli assessed as bacterial growth inhibition incubated for 18 hrs by CLSI protocol based Mueller-Hinton broth assay; type: functional
Staphylococcus aureus [13] = test: Antibacterial activity against Staphylococcus aureus assessed as reduction in microbial growth by CLSI based broth microdilution method; type: functional
Bacillus subtilis [14] = test: Antibacterial activity against Bacillus subtilis 6633 assessed as reduction in bacterial growth; type: functional
Staphylococcus aureus [15] = test: Antibacterial activity against Staphylococcus aureus ATCC 3750 assessed as reduction in bacterial growth; type: functional
Streptococcus pyogenes = test: Antibacterial activity against Streptococcus pyogenes assessed as reduction in microbial growth by CLSI based broth microdilution method; type: functional
Pseudomonas aeruginosa [16] = test: Antibacterial activity against Pseudomonas aeruginosa assessed as reduction in bacterial growth by broth microdilution method; type: functional
Escherichia coli [17] = test: Antibacterial activity against Escherichia coli ATCC 25922 assessed as bacterial growth inhibition; type: functional
Staphylococcus aureus [18] = test: Antibacterial activity against Staphylococcus aureus; type: functional
Bacillus subtilis [19] = test: Antibacterial activity against Bacillus subtilis; type: functional
Pseudomonas aeruginosa [20] = test: Antimicrobial activity against Pseudomonas aeruginosa assessed as diameter of inhibition zone incubated for 24 hrs by well diffusion assay; type: functional
Micrococcus luteus = test: Antimicrobial activity against Micrococcus luteus assessed as diameter of inhibition zone incubated for 24 hrs by well diffusion assay; type: functional
Bacillus subtilis [21] = test: Antimicrobial activity against Bacillus subtilis assessed as diameter of inhibition zone incubated for 24 hrs by well diffusion assay; type: functional
Salmonella typhimurium [22] = test: Antimicrobial activity against Salmonella typhimurium DT104 assessed as diameter of inhibition zone incubated for 24 hrs by well diffusion assay; type: functional, Salmonella enterica subsp. enterica serovar Typhimurium

COc1ccc(C2C3=C(CCCC3=O)Oc3nc(-c4cc5ccccc5oc4=O)[nH]c(=O)c32)cc1OC (stereo not given)
MIC (Staphylococcus aureus [1]): 50 µg/mL (≈ 100 µM)
MIC (Klebsiella pneumoniae): 50 µg/mL (≈ 100 µM)
MIC (Escherichia coli [2]): 12.5 µg/mL (≈ 25.1 µM)
MIC (Pseudomonas aeruginosa [3]): 50 µg/mL
MIC (Escherichia coli [4]): 50 µg/mL (≈ 100 µM)
MIC [5]: 100 µg/mL
MIC (Bacillus subtilis [6]): 50 µg/mL (≈ 100 µM)
MIC (Pseudomonas aeruginosa [7]): 50 µg/mL

CC1(C)S[C@@H]2[C@H](NC(=O)[C@H](N)c3ccccc3)C(=O)N2[C@H]1C(=O)O [AMPICILLIN]
MIC (Salmonella typhimurium [8]): 49 µg/mL (≈ 140 µM)
zone of inhibition at 50 µg/mL (Streptococcus pneumoniae [9]): 23.8 mm
MIC (Streptococcus pneumoniae [10]): 0.98 µg/mL (≈ 2.8 µM)
zone of inhibition at 50 µg/mL (Bacillus subtilis [11]): 32.4 mm
MIC (Escherichia coli [12]): 100 µg/mL (≈ 286 µM)
MIC (Staphylococcus aureus [13]): 250 µg/mL
MIC (Bacillus subtilis [14]): 4 µg/mL (≈ 11.4 µM)
MIC (Staphylococcus aureus [15]): 50 µg/mL (≈ 143 µM)
MIC (Streptococcus pyogenes): 100 µg/mL
MIC (Pseudomonas aeruginosa [16]): 100 µg/mL (≈ 286 µM)
MIC (Escherichia coli [17]): 4 µg/mL (≈ 11.4 µM)
MIC (Staphylococcus aureus [18]): 0.49 µg/mL (≈ 1.4 µM)
MIC (Bacillus subtilis [19]): 0.49 µg/mL (≈ 1.4 µM)

CC[C@H]1OC(=O)[C@H](C)[C@@H](O[C@H]2C[C@@](C)(OC)[C@@H](O)[C@H](C)O2)[C@H](C)[C@@H](O[C@@H]2O[C@H](C)C[C@H](N(C)C)[C@H]2O)[C@](C)(O)C[C@@H](C)C(=O)[C@H](C)[C@@H](O)[C@]1(C)O [ERYTHROMYCIN]
inhibition zone (IZ) (Pseudomonas aeruginosa [20]): 10 mm
inhibition zone (IZ) (Micrococcus luteus): 10 mm
inhibition zone (IZ) (Bacillus subtilis [21]): 12 mm
inhibition zone (IZ) (Salmonella typhimurium [22]): 7 mm
